Where two headings read alike, the source gives them in different places. Ends that are not written are not given here.
What was measured:
S. aureus = type: cell-based
Method: (§1) In vitro sensitivity assay of aerobically growing bacteria, using the disc diffusion method was performed according to the standards in the M2 document of the CLSI (Clinical and Laboratory Standards Institute: Performance Standards for Antimicrobial Disk Susceptibility Tests.) using the non-amidated peptides
(§2) In brief, intermediate solutions (10×) of the antimicrobial non-amidated peptides were prepared by serial dilutions 1:2, 1:4 and 1:8 by two-fold dilutions. Then, one part of the solution of the antimicrobial peptide 10× was added to nine parts of melted bacteriological agar. The antibiotic solution was added for each dilution, in the melted agar and cooled to 45-50° C. in a water bath. Then, the agar-antibiotic mixture was placed in a Petri dish until a 3-4 mm depth was reached. The inoculum is prepared with a turbidity of 0.5 in the McFarland scale (approximately 1-2 10^8 CFU/ml). The final inoculum required for the agar dilution test is 10^4 colony forming units (CFU) per “spot” having 5-8 mm in diameter. The inoculated plates must be incubated upside down at 35° C. for a period of 16-20 hs. MIC was recorded as the value of the lower dilution completely inhibiting bacterial development, without considering the development of a single colony or a slight film caused by the inoculum deposit. The final point in these cases will correspond to the concentration at which there is more than 80% reduction in growth as compared with the control.

S. cohnii = type: cell-based
Method: as §1, §2

E. coli = type: cell-based
Method: as §1, §2

K. pneumoniae = type: cell-based
Method: as §1, §2

S. warnerii = type: cell-based
Method: as §1, §2

P. aeruginosa = type: cell-based
Method: as §1, §2

Staphylococcus warneri = test system: Staphylococcus warneri
Method: (§3) The 5 designed and synthesized peptides of the invention, plus omiganan (peptide of the state of the art) were evaluated for their antimicrobial capacity in microdilution assays for determining the minimum inhibitory concentration (MIC). A first panel of 8 representative strains was analyzed in these assays, encompassing Gram positive and Gram negative bacteria. […] The lowest MIC values indicate a higher antimicrobial potency.
(§4) Subsequently, an analysis of a panel of clinical isolates including strains with different resistance mechanisms against conventional antibiotics was carried out, all of which are of clinical relevance. […] In Table 3 the results for a panel of Gram negative bacteria are shown, and in Table 4 for a panel of […] bacteria. In these tables the detected gene/s responsible for the resistance against antibiotics for each strain, are included.
(§5) Antimicrobial activity was analyzed by means of the determination of the MIC (minimum inhibitory concentration) by the microdilution technique. The technique was carried out in the standard fashion according to (CLSI M07-A9 Vol. 32 No 2. January 2012). The peptide concentration range used was from 0.5 μg/mL to 512 μg/mL in two-fold serial dilutions. The used medium was MH Difco broth supplemented with cations, at a final concentration of Ca^++20-25 mg/L and Mg^++10-12.5 mg/L. The working inoculum used corresponds to a 1/100 dilution of a bacterial suspension equivalent to 0.5 in the Mc Farland scale.

Klebsiella pneumoniae = test system: Klebsiella pneumoniae
Method: as §3, §4, §5

Staphylococcus cohnii = test system: Staphylococcus cohnii
Method: as §3, §4, §5

Escherichia coli = test system: Escherichia coli
Method: as §3, §4, §5

Pseudomonas aeruginosa = experiment: MIC by broth microdilution; type: cell-based
Method: as §3, §4, §5

E. gallinarum = test system: E. gallinarum
Method: as §4, §5

S. haemolyticus = test system: S. haemolyticus
Method: as §4, §5

E. faecalis = test system: E. faecalis
Method: as §4, §5

S. saprophyticus = test system: S. saprophyticus
Method: as §4, §5

A. baumanii = test system: A. baumanii
Method: as §4, §5

human erythrocytes = experiment: Erythrocyte hemolysis assay (cytotoxicity); type: cell-based
Method: Subsequently, the capacity of the peptides of the invention for lysing human erythrocytes was evaluated, as a measure of their cytotoxicity (Table 2). The assays were carried out according to the Examples and are expressed as a percentage of total lysis obtained with either water or the surfactant Tween 20. In this assays, the lower hemolysis percentage, the lower expected cytotoxic activity.
Evaluation of cytotoxic activity was performed by means of an erythrocyte hemolysis assay (according to Pure Appl. Chem., Vol. 79, No. 4, pp. 717-728, 2007). In brief, from a volume of heparinized human whole blood, 3 times that volume of PBS is added and centrifuged 10 minutes at 1500 rpm, repeating the washing two more times. 10% blood solutions in PBS were prepared with that pellet. Subsequently, each group was added the corresponding peptide at the indicated concentration and incubated at 37° C. for 30 minutes. […]

Staphylococcus aureus = experiment: MIC by broth microdilution; type: cell-based
Method: as §3, §4, §5

With “FGKEKKAWWRRRKWLK-NH2 [peptide 3, FGKEKKAWWRRRKWLK]” the “MIC in agar dilution” value (S. aureus) was over 128 µg/mL, the “MIC in agar dilution” value (S. cohnii) was 32 µg/mL and the “MIC in agar dilution” value (E. coli) was over 128 µg/mL. For the same substance, the “MIC in agar dilution” value (K. pneumoniae) was over 128 µg/mL, the “MIC in agar dilution” value (S. warnerii) was 32 µg/mL and the “MIC in agar dilution” value (P. aeruginosa) was over 128 µg/mL. It also gave an MIC (Staphylococcus warneri) of 8 µg/mL, an MIC (Klebsiella pneumoniae) of 128 µg/mL and an MIC (Staphylococcus cohnii) of 4 µg/mL. For the same substance, the MIC (Escherichia coli) was 64 µg/mL and the MIC (Pseudomonas aeruginosa) was 128 µg/mL.
For WPKWWKWKRRWGRKKAKKRRG-NH2 [peptide 1], the “MIC in agar dilution” value (S. aureus; non-amidated peptides, S. aureus ATCC29213, MSSA) was over 128 µg/mL, the “MIC in agar dilution” value (S. aureus; non-amidated peptides, S. aureus M6794, MRSA) was over 128 µg/mL and the “MIC in agar dilution” value (S. cohnii) was 16 µg/mL. The “MIC in agar dilution” value (E. coli; non-amidated peptides, E. coli ATCC 25922, WT) was over 128 µg/mL, the “MIC in agar dilution” value (K. pneumoniae; non-amidated peptides, K. pneumoniae M13540, KPC) was over 128 µg/mL and the “MIC in agar dilution” value (S. warnerii) was 16 µg/mL. The “MIC in agar dilution” value (P. aeruginosa) was over 128 µg/mL, the “MIC in agar dilution” value (P. aeruginosa; non-amidated peptides, P. aeruginosa M13513, KPC) was over 128 µg/mL and the MIC (E. gallinarum; E. gallinarum M2685, resistance gene vanC1 + vanA) was 16 µg/mL. The MIC (E. gallinarum; E. gallinarum M2723, resistance gene vanC1 + vanA) was 32 µg/mL, the MIC (S. haemolyticus) was 16 µg/mL and the MIC (E. faecalis) was 64 µg/mL. It also gave an MIC (E. faecalis; E. faecalis ATCC 51299, resistance gene vanB) of 256 µg/mL, an MIC (E. faecalis; E. faecalis M4449, resistance gene vanA) of 128 µg/mL and an MIC (E. faecalis; E. faecalis M4899, resistance gene vanB) of 256 µg/mL. It also gave an MIC (E. faecalis; E. faecalis M4992, resistance gene vanA) of 128 µg/mL, an MIC (E. faecalis; E. faecalis M6383, resistance gene vanA) of 128 µg/mL and an MIC (E. faecalis; E. faecalis M6534, resistance gene vanB) of 128 µg/mL. The MIC (S. saprophyticus) was 16 µg/mL, the MIC (A. baumanii; A. baumanii FAV-1, resistance gene per + oxa-51 + oxa-58) was 64 µg/mL and the MIC (A. baumanii; A. baumanii M5179, resistance gene oxa-51) was 64 µg/mL. The MIC (A. baumanii; A. baumanii M5277, resistance gene per) was 64 µg/mL, the MIC (A. baumanii; A. baumanii M5282, resistance gene oxa-51) was 64 µg/mL and the MIC (A. baumanii; A. baumanii M7489, resistance gene oxa-51 + tem) was 64 µg/mL. The MIC (A. baumanii; A. baumanii M7978, resistance gene imp) was 64 µg/mL, the MIC (A. baumanii; A. baumanii M13523, resistance gene oxa-51) was 64 µg/mL and the MIC (Escherichia coli; E. coli ABC11, resistance gene ctx-m-2) was 128 µg/mL. The MIC (Escherichia coli; E. coli Cos15, resistance gene per + tem) was 128 µg/mL, the MIC (Escherichia coli; E. coli LCA1, resistance gene ctx-m-2 + tem-1) was 128 µg/mL and the MIC (Escherichia coli; E. coli M5306, resistance gene ctx-m-2 + tem-1 + per-2) was 128 µg/mL. For the same substance, the MIC (Escherichia coli; E. coli M7859, resistance gene cit) was 128 µg/mL, the MIC (Escherichia coli; E. coli M9209, resistance gene kpc) was 128 µg/mL and the MIC (Escherichia coli; E. coli NEU23, resistance gene oxa-GIII + tem) was 128 µg/mL. For the same substance, the “therapeutic index (antimicrobial potency over the cytotoxicity percentage)” value (human erythrocytes; in words) was “highest therapeutic index values”, the “Hemolysis % (1% Tween20)” value (human erythrocytes; peptide 128 ug/ml, percentage of total lysis obtained with 1% Tween20) was 4% and the “Hemolysis % (water)” value (human erythrocytes; peptide 128 ug/ml, percentage of total lysis obtained with water) was 3.4%. For the same substance, the “OD 540 nm” value (human erythrocytes; peptide 128 ug/ml, supernatant of human erythrocytes, 37° C., 30 minutes) was 0.067, the MIC (Pseudomonas aeruginosa; P. aeruginosa M5109, resistance gene vim) was 128 µg/mL and the MIC (Pseudomonas aeruginosa; P. aeruginosa M5470, resistance gene ND) was 128 µg/mL. For the same substance, the MIC (Pseudomonas aeruginosa; P. aeruginosa M7525, resistance gene spm) was 64 µg/mL, the MIC (Pseudomonas aeruginosa; P. aeruginosa M7712, resistance gene spm) was 64 µg/mL and the MIC (Pseudomonas aeruginosa; P. aeruginosa M7723, resistance gene kpc) was 64 µg/mL. For the same substance, the MIC (Pseudomonas aeruginosa; P. aeruginosa M7728, resistance gene imp) was 128 µg/mL, the MIC (Pseudomonas aeruginosa; P. aeruginosa M7907, resistance gene per) was 128 µg/mL and the MIC (Staphylococcus aureus; S. aureus 28, resistance gene ermA) was 32 µg/mL. The MIC (Staphylococcus aureus; S. aureus 33, resistance gene msrA) was 32 µg/mL, the MIC (Staphylococcus aureus; S. aureus 204, resistance gene ermA) was 64 µg/mL and the MIC (Staphylococcus aureus; S. aureus 239, resistance gene ermC) was 32 µg/mL. It also gave an MIC (Staphylococcus aureus; S. aureus ATCC29213, WT) of 32 µg/mL, an MIC (Staphylococcus aureus; S. aureus M2832, resistance gene mecA) of 32 µg/mL and an MIC (Staphylococcus aureus; S. aureus M4046, resistance gene mecA) of 32 µg/mL. It also gave an MIC (Staphylococcus aureus; S. aureus M6276, resistance gene ermA + lnuA) of 16 µg/mL and an MIC (Staphylococcus aureus; S. aureus M6784, resistance gene mecA) of 32 µg/mL.
